The results in this text go back to US10155259B2 (Merck Sharp & Dohme B.V., priority 2011, dated 2018).

SMILES strings stand for the structures. Bounds are passed on as bounds.

In the assay the target is T1, human FSH receptor (Homo sapiens, UniProt P23945).
T1 construct: expressed in transfected cells; host or cells: CHO cells, stably transfected; cotransfected with CRE-luciferase reporter
T1 sequence (P23945 18-695): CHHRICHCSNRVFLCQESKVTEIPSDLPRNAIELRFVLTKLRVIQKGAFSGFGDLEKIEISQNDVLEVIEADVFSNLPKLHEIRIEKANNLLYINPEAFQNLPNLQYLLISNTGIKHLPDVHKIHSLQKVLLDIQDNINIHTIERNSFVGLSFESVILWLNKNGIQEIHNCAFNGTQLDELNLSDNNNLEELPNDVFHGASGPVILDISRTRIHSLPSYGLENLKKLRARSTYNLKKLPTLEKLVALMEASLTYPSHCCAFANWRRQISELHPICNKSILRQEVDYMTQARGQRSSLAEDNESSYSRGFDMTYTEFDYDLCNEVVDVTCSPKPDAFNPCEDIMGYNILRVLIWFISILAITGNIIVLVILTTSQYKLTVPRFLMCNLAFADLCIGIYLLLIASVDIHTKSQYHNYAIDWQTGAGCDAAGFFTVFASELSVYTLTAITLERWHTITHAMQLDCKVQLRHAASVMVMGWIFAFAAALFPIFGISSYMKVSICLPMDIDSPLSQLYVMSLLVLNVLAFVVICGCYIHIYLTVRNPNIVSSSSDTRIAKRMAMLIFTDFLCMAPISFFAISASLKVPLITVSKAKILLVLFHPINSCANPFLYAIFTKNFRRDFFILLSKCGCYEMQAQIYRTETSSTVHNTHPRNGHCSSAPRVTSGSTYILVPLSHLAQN
As to the kind of experiment: Antagonistic activity of compounds at the human FSH receptor expressed in CHO cells (CRE-luciferase reporter). In kind it is cell-based. Conditions: CHO cells stably transfected with human FSH receptor and CRE/luciferase reporter; together with 49 μM recFSH; 4 hours incubation; 1% DMSO; read-out: IC50 (concentration of test compound causing half-maximal inhibition of the maximally attainable inhibition of the luciferase stimulation). In a few lines: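 Stably transfected CHO cells with a CRE-driven firefly luciferase reporter were co-incubated 4 h at 37 °C with compound (0.316 nM–10.0 μM, duplicate) plus […] recFSH (80% maximal stimulation), 1% DMSO final. Luminescence read after lysis; IC50 and efficacy from inhibition of FSH-induced luciferase signal.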
In general terms: Reporter assays use an easily measured gene product as a stand-in for the process of interest.
For `C=CCOc1cc2c(cc1OC)CCn1c-2cc(C(=O)N[C@@H](CO)Cc2c[nH]c3ccccc23)c1-c1cccs1` [Example 41], the IC50 is under 100 nM. In the case of `COc1cc2c(cc1O)-c1cc(C(=O)N[C@@H](CO)Cc3c[nH]c4ccccc34)c(-c3cccc(F)c3)n1CC2` [Example 31, (R)-3-(3-fluorophenyl)-9-hydroxy-N-(1-hydroxy-3-(1H-indol-3-yl)propan-2-yl)-8-methoxy-5,6-dihydropyrrolo[2,1-a]isoquinoline-2-carboxamide], the IC50 lay within 100 to 1000 nM. As to `COc1cc2c(cc1OC(C)C)-c1cc(C(=O)NC(CO)C3(c4c[nH]c5ccccc45)CC3)c(-c3cccc(F)c3)n1CC2` (centres unmarked) [Example 3], the IC50 was 100 to 1000 nM. As for `COc1cc2c(cc1OC)-c1cc(C(=O)N[C@@H](CO)Cc3c[nH]c4ccccc34)c(-c3cc(C)cc(C)c3)n1CC2` [Example 4, (R)-3-(3,5-dimethylphenyl)-N-(1-hydroxy-3-(1H-indol-3-yl)propan-2-yl)-8,9-dimethoxy-5,6-dihydropyrrolo[2,1-a]isoquinoline-2-carboxamide], the figure is 100 to 1000 nM; as for `COc1cc2c(cc1-c1cnc(N(C)C)nc1)-c1cc(C(=O)N[C@@H](CO)Cc3c[nH]c4ccccc34)c(-c3cccs3)n1CC2` [Example 56, (R)-9-(2-(dimethylamino)pyrimidin-5-yl)-N-(1-hydroxy-3-(1H-indol-3-yl)propan-2-yl)-8-methoxy-3-(thiophen-2-yl)-5,6-dihydropyrrolo[2,1-a]isoquinoline-2-carboxamide], under 100 nM; as for `COc1cc2c(cc1OC(C)C)-c1cc(C(=O)N[C@@H](CO)Cc3c[nH]c4ccccc34)c(C(=O)C(C)C)n1CC2` [Example 24, (R)—N-(1-hydroxy-3-(1H-indol-3-yl)propan-2-yl)-3-isobutyryl-9-isopropoxy-8-methoxy-5,6-dihydropyrrolo[2,1-a]isoquinoline-2-carboxamide], under 100 nM.

With `COc1cc2c(cc1OC(C)C)-c1cc(C(=O)N[C@@H](CO)Cc3c[nH]c4ccccc34)c(-c3ccccc3F)n1CC2` [Example 18, 3-(2-fluorophenyl)-N—((R)-1-hydroxy-3-(1H-indol-3-yl)propan-2-yl)-9-isopropoxy-8-methoxy-5,6-dihydropyrrolo[2,1-a]isoquinoline-2-carboxamide], the IC50 was under 100 nM. As for `COc1cc2c(cc1OC(C)C)-c1cc(C(=O)N[C@@H](CO)Cc3c[nH]c4ccccc34)c(C(=O)c3cccs3)n1CC2` [Example 28, (R)—N-(1-hydroxy-3-(1H-indol-3-yl)propan-2-yl)-9-isopropoxy-8-methoxy-3-(thiophene-2-carbonyl)-5,6-dihydropyrrolo[2,1-a]isoquinoline-2-carboxamide], the figure is under 100 nM; as for `COc1cc2c(cc1OC)-c1cc(C(=O)N[C@@H](CO)Cc3c[nH]c4ccccc34)c(-c3ccc(F)cc3)n1CC2` [Example 6, (R)—N-(1-hydroxy-3-(1H-indol-3-yl)propan-2-yl)-8,9-dimethoxy-3-(4-fluorophenyl)-5,6-dihydropyrrolo[2,1-a]isoquinoline-2-carboxamide], under 100 nM. Under `COc1cc2c(cc1C(=O)N(C)C)-c1cc(C(=O)N[C@@H](CO)Cc3c[nH]c4ccccc34)c(-c3cccc(F)c3)n1CC2` [Example 48, (R)-3-(3-fluorophenyl)-N2-(1-hydroxy-3-(1H-indol-3-yl)propan-2-yl)-8-methoxy-N9,N9-dimethyl-5,6-dihydropyrrolo[2,1-a]isoquinoline-2,9-dicarboxamide] stands 100 to 1000 nM; under `COc1cc2c(cc1OC(C)C)-c1cc(C(=O)N[C@@H](CO)Cc3c[nH]c4ccccc34)c(-c3ccc(F)cc3)n1CC2` [Example 13, (R)-3-(4-fluorophenyl)-N-(1-hydroxy-3-(1H-indol-3-yl)propan-2-yl)-9-isopropoxy-8-methoxy-5,6-dihydropyrrolo[2,1-a]isoquinoline-2-carboxamide], under 100 nM; under `COc1ccc(-c2c(C(=O)N[C@@H](CO)Cc3c[nH]c4ccccc34)cc3n2CCc2cc(OC)c(OC)cc2-3)cc1` [Example 8, (R)—N-(1-hydroxy-3-(1H-indol-3-yl)propan-2-yl)-8,9-dimethoxy-3-(4-methoxyphenyl)-5,6-dihydropyrrolo[2,1-a]isoquinoline-2-carboxamide], under 100 nM. As for `COc1cc2c(cc1-c1cccnc1OC)-c1cc(C(=O)N[C@@H](CO)Cc3c[nH]c4ccccc34)c(-c3cccs3)n1CC2` [Example 54, N—((R)-1-hydroxy-3-(1H-indol-3-yl)propan-2-yl)-8-methoxy-9-(2-methoxypyridin-3-yl)-3-(thiophen-2-yl)-5,6-dihydropyrrolo[2,1-a]isoquinoline-2-carboxamide], the figure is under 100 nM; as for `COc1cc2c(cc1OC(C)C)-c1cc(C(=O)N[C@@H](CO)Cc3c[nH]c4ccccc34)c(C(=O)C3CC3)n1CC2` [Example 27, (R)-3-(cyclopropanecarbonyl)-N-(1-hydroxy-3-(1H-indol-3-yl)propan-2-yl)-9-isopropoxy-8-methoxy-5,6-dihydropyrrolo[2,1-a]isoquinoline-2-carboxamide], under 100 nM.
